From ChEMBL document CHEMBL1139786, “Anti-tubercular agents. Part IV: Synthesis and antimycobacterial evaluation of nitroheterocyclic-based 1,2,4-benzothiadiazines” (2007)
≈ marks a conversion by molar mass, not a printed value.

How the values were obtained:
Type in all cases: functional
[1] = test system: Mycobacterium tuberculosis; assay: Antibacterial activity against Mycobacterium tuberculosis H37Rv by nitrate reductase assay
Bacillus subtilis = assay: Antibacterial activity against Bacillus subtilis MTCC 441 by broth dilution method
Pseudomonas aeruginosa = assay: Antibacterial activity against Pseudomonas aeruginosa MTCC 1688 by broth dilution method
Staphylococcus aureus = assay: Antibacterial activity against Staphylococcus aureus MTCC 96 by broth dilution method
Escherichia coli = assay: Antibacterial activity against Escherichia coli MTCC 443 by broth dilution method

SMILES	MIC [1]	MIC (Bacillus subtilis)	MIC (Pseudomonas aeruginosa)	MIC (Staphylococcus aureus)	MIC (Escherichia coli)
CCN1C(NNC(=O)c2ccc([N+](=O)[O-])o2)=NS(=O)(=O)c2ccccc21	32 µg/mL (≈ 84.4 µM)	18.8 µg/mL (≈ 49.4 µM)	150 µg/mL (≈ 395 µM)	150 µg/mL (≈ 395 µM)	18.8 µg/mL (≈ 49.4 µM)
O=C(NNC1=NS(=O)(=O)c2ccccc2N1c1ccccc1)c1ccc(-c2cccc([N+](=O)[O-])c2)o1	> 100 µg/mL	37.5 µg/mL (≈ 74.5 µM)	150 µg/mL (≈ 298 µM)	18.8 µg/mL (≈ 37.2 µM)	18.8 µg/mL (≈ 37.2 µM)
O=[N+]([O-])c1ccc(/C=N\NC2=NS(=O)(=O)c3ccccc3N2c2ccccc2)s1	4 µg/mL (≈ 9.36 µM)	37.5 µg/mL (≈ 87.7 µM)	150 µg/mL (≈ 351 µM)	37.5 µg/mL (≈ 87.7 µM)	18.8 µg/mL (≈ 43.9 µM)
CN1C(NNC(=O)c2ccc(-c3ccccc3[N+](=O)[O-])o2)=NS(=O)(=O)c2cc(Cl)ccc21	> 100 µg/mL	37.5 µg/mL (≈ 78.8 µM)	150 µg/mL (≈ 315 µM)	75 µg/mL (≈ 158 µM)	18.8 µg/mL (≈ 39.4 µM)
NNC(=O)c1ccncc1 [ISONIAZID]	0.5 µg/mL (≈ 3.65 µM)				
CCN1C(NNC(=O)c2ccc(-c3cccc([N+](=O)[O-])c3)o2)=NS(=O)(=O)c2ccccc21	> 100 µg/mL	37.5 µg/mL (≈ 82.3 µM)	150 µg/mL (≈ 329 µM)	75 µg/mL (≈ 165 µM)	75 µg/mL (≈ 165 µM)
O=[N+]([O-])c1ccc(/C=N\NC2=NS(=O)(=O)c3ccccc3N2c2ccccc2)o1	1 µg/mL (≈ 2.43 µM)	37.5 µg/mL (≈ 91.2 µM)	150 µg/mL (≈ 365 µM)	75 µg/mL (≈ 182 µM)	37.5 µg/mL (≈ 91.2 µM)
CN1C(NNC(=O)c2ccc([N+](=O)[O-])o2)=NS(=O)(=O)c2ccccc21	32 µg/mL (≈ 87.6 µM)	18.8 µg/mL (≈ 51.3 µM)	150 µg/mL (≈ 411 µM)	37.5 µg/mL (≈ 103 µM)	18.8 µg/mL (≈ 51.3 µM)
CCN1C(N/N=C\c2ccc([N+](=O)[O-])s2)=NS(=O)(=O)c2ccccc21	16 µg/mL (≈ 42.2 µM)	18.8 µg/mL (≈ 49.4 µM)	150 µg/mL (≈ 395 µM)	18.8 µg/mL (≈ 49.4 µM)	18.8 µg/mL (≈ 49.4 µM)
CCN1C(NNC(=O)c2ccc(-c3ccccc3[N+](=O)[O-])o2)=NS(=O)(=O)c2ccccc21	> 100 µg/mL	18.8 µg/mL (≈ 41.2 µM)	150 µg/mL (≈ 329 µM)	9.37 µg/mL (≈ 20.6 µM)	18.8 µg/mL (≈ 41.2 µM)
CO[C@H]1/C=C/O[C@@]2(C)Oc3c(C)c(O)c4c(O)c(c(/C=N/N5CCN(C)CC5)c(O)c4c3C2=O)NC(=O)/C(C)=C\C=C\[C@H](C)[C@H](O)[C@@H](C)[C@@H](O)[C@@H](C)[C@H](OC(C)=O)[C@@H]1C [RIFAMPIN]	0.12 µg/mL (≈ 0.146 µM)				
O=C1CN(/N=C/c2ccc([N+](=O)[O-])o2)C(=O)N1 [NITROFURANTOIN]		18.8 µg/mL (≈ 78.7 µM)	150 µg/mL (≈ 630 µM)	18.8 µg/mL (≈ 78.7 µM)	18.8 µg/mL (≈ 78.7 µM)
CN1C(N/N=C\c2ccc([N+](=O)[O-])s2)=NS(=O)(=O)c2ccccc21	8 µg/mL (≈ 21.9 µM)	18.8 µg/mL (≈ 51.3 µM)	150 µg/mL (≈ 411 µM)	37.5 µg/mL (≈ 103 µM)	37.5 µg/mL (≈ 103 µM)
CN1C(N/N=C\c2ccc([N+](=O)[O-])o2)=NS(=O)(=O)c2ccccc21	8 µg/mL (≈ 22.9 µM)	37.5 µg/mL (≈ 107 µM)	150 µg/mL (≈ 429 µM)	37.5 µg/mL (≈ 107 µM)	18.8 µg/mL (≈ 53.7 µM)
O=C(NNC1=NS(=O)(=O)c2ccccc2N1c1ccccc1)c1ccc(-c2ccccc2[N+](=O)[O-])o1	> 100 µg/mL	37.5 µg/mL (≈ 74.5 µM)	150 µg/mL (≈ 298 µM)	18.8 µg/mL (≈ 37.2 µM)	75 µg/mL (≈ 149 µM)
CCN1C(N/N=C\c2ccc([N+](=O)[O-])o2)=NS(=O)(=O)c2ccccc21	8 µg/mL (≈ 22 µM)	9.37 µg/mL (≈ 25.8 µM)	150 µg/mL (≈ 413 µM)	37.5 µg/mL (≈ 103 µM)	18.8 µg/mL (≈ 51.6 µM)
CN1C(NNC(=O)c2ccc(-c3cccc([N+](=O)[O-])c3)o2)=NS(=O)(=O)c2ccccc21	> 100 µg/mL	37.5 µg/mL (≈ 85 µM)	75 µg/mL (≈ 170 µM)	18.8 µg/mL (≈ 42.5 µM)	18.8 µg/mL (≈ 42.5 µM)
CN1C(NNC(=O)c2ccc([N+](=O)[O-])o2)=NS(=O)(=O)c2cc(Cl)ccc21	4 µg/mL (≈ 10 µM)	18.8 µg/mL (≈ 46.9 µM)	150 µg/mL (≈ 375 µM)	37.5 µg/mL (≈ 93.8 µM)	18.8 µg/mL (≈ 46.9 µM)
O=C(NNC1=NS(=O)(=O)c2ccccc2N1c1ccccc1)c1ccc([N+](=O)[O-])o1	8 µg/mL (≈ 18.7 µM)	75 µg/mL (≈ 175 µM)	150 µg/mL (≈ 351 µM)	37.5 µg/mL (≈ 87.7 µM)	18.8 µg/mL (≈ 43.9 µM)
CN1C(NNC(=O)c2ccc(-c3ccccc3[N+](=O)[O-])o2)=NS(=O)(=O)c2ccccc21	> 100 µg/mL	37.5 µg/mL (≈ 85 µM)	75 µg/mL (≈ 170 µM)	18.8 µg/mL (≈ 42.5 µM)	37.5 µg/mL (≈ 85 µM)
CC(C)N1C(N/N=C\c2ccc([N+](=O)[O-])s2)=NS(=O)(=O)c2ccccc21	4 µg/mL (≈ 10.2 µM)	18.8 µg/mL (≈ 47.7 µM)	150 µg/mL (≈ 381 µM)	18.8 µg/mL (≈ 47.7 µM)	18.8 µg/mL (≈ 47.7 µM)
